Reference: article PMC8333425, “Discovery of a dual Ras and ARF6 inhibitor from a GPCR endocytosis screen” (Nature Communications, 2021)

How the values were obtained:
Test in all cases: KINOMEscan kinase binding assay
[1] = target: T1, 384 kinases from the human genome (Homo sapiens, UniProt P53355); conditions: kinase DAPK1 (Entrez DAPK1)
T1 construct: purchased Eurofin/DiscoverX
Text: (§1) We reasoned that because internalizing AT1R and its targeting to intracellular compartments can support continued MAPK signaling, and since 21 inhibits receptor internalization, it should also impede to some extent ERK1/2 activation. […] Receptor-mediated ERK1/2 signaling can involve upstream kinases such as PKC, BRAF, and MEK1[35],[36]. […] To exclude other kinases potentially involved in ERK1/2 and Akt activation as targets of 21, we ran a kinase binding assay (KINOMEscan™) on 384 kinases from the human genome. Remarkably, a very high selectivity score S(10) of 0.008 was found (Supplementary Data 3).
(§2) The chemical library used for initial screening was from Chembridge DiverSet™ (60,000 compounds), Maybridge HitFinder™ (16,000 compounds), Maybridge (selected, 16,000 compounds), SPECS (selected, 16000 compounds), Microsource Discovery Spectrum (2000 compounds), Biomol (natural products, 500 compounds), Prestwick (commercialized products, 1120 compounds), SIGMA LopacTM (1280 compounds) and internal collection (synthesized at Université de Montréal-IRIC, ~4000 compounds). Compounds were all assigned an Université de Montréal number (UM) for internal use. Screen was performed at IRIC HTS facility. KINOMEscan™ profiling was serviced by Eurofin/DiscoverX (San Diego, USA).
(§3) Description of Additional Supplementary Files […]
(§4) File Name: Supplementary Data 3
(§5) Description: KINOMEscan results. Compound 21’s effect was tested on 384 kinases. Data represent kinases binding to their ligands in presence of 10 µM of 21, as compared to DMSO (100%). Results are from one experiment and represent the average of duplicates. Three kinases (FLT3, KIT, and PDGFRB) out of 384 were more than 90% affected (selectivity score S(10) of 0.008). […]

[2] = target: T2, 384 kinases from the human genome (Homo sapiens, UniProt P48736); conditions: kinase PIK3CG (Entrez PIK3CG)
T2 construct: purchased Eurofin/DiscoverX
Text: as §1, §2, §3, §4, §5

[3] = test system: 384 kinases from the human genome; conditions: 10 µM of 21
Text: as §1, §2, §3, §4, §5

[4] = target: T3, 384 kinases from the human genome (Homo sapiens, UniProt Q9HCP0); conditions: kinase CSNK1G1 (Entrez CSNK1G1)
T3 construct: purchased Eurofin/DiscoverX
Text: as §1, §2, §3, §4, §5

[5] = target: T4, 384 kinases from the human genome (Homo sapiens, UniProt Q52WX2); conditions: kinase SBK1 (Entrez SBK1)
T4 construct: purchased Eurofin/DiscoverX
Text: as §1, §2, §3, §4, §5

[6] = target: T5, 384 kinases from the human genome (Homo sapiens, UniProt Q9Y2U5); conditions: kinase MAP3K2 (Entrez MAP3K2)
T5 construct: purchased Eurofin/DiscoverX
Text: as §1, §2, §3, §4, §5

[7] = target: T6, 384 kinases from the human genome (Homo sapiens, UniProt Q59H18); conditions: kinase TNNI3K (Entrez TNNI3K)
T6 construct: purchased Eurofin/DiscoverX
Text: as §1, §2, §3, §4, §5

[8] = target: T7, 384 kinases from the human genome (Homo sapiens, UniProt Q08345); conditions: kinase DDR1 (Entrez DDR1)
T7 construct: purchased Eurofin/DiscoverX
Text: as §1, §2, §3, §4, §5

[9] = target: T8, 384 kinases from the human genome (Homo sapiens, UniProt P28482); conditions: kinase ERK2 (Entrez MAPK1)
T8 construct: purchased Eurofin/DiscoverX
Text: as §1, §2, §3, §4, §5

[10] = target: T9, 384 kinases from the human genome (Homo sapiens, UniProt Q8IU85); conditions: kinase CAMK1D (Entrez CAMK1D)
T9 construct: purchased Eurofin/DiscoverX
Text: as §1, §2, §3, §4, §5

[11] = target: T10, 384 kinases from the human genome (Homo sapiens, UniProt O76039); conditions: kinase CDKL5 (Entrez CDKL5)
T10 construct: purchased Eurofin/DiscoverX
Text: as §1, §2, §3, §4, §5

[12] = target: T11, 384 kinases from the human genome (Homo sapiens, UniProt Q9BVS4); conditions: kinase RIOK2 (Entrez RIOK2)
T11 construct: purchased Eurofin/DiscoverX
Text: as §1, §2, §3, §4, §5

[13] = target: T12, 384 kinases from the human genome (Homo sapiens, UniProt Q04912); conditions: kinase MST1R (Entrez MST1R)
T12 construct: purchased Eurofin/DiscoverX
Text: as §1, §2, §3, §4, §5

[14] = target: T13, 384 kinases from the human genome (Homo sapiens, UniProt Q9H2K8); conditions: kinase TAOK3 (Entrez TAOK3)
T13 construct: purchased Eurofin/DiscoverX
Text: as §1, §2, §3, §4, §5

[15] = target: T14, 384 kinases from the human genome (Homo sapiens, UniProt Q8IVW4); conditions: kinase CDKL3 (Entrez CDKL3)
T14 construct: purchased Eurofin/DiscoverX
Text: as §1, §2, §3, §4, §5

[16] = target: T15, 384 kinases from the human genome (Homo sapiens, UniProt P30291); conditions: kinase WEE1 (Entrez WEE1)
T15 construct: purchased Eurofin/DiscoverX
Text: as §1, §2, §3, §4, §5

[17] = target: T16, 384 kinases from the human genome (Homo sapiens, UniProt Q9H0K1); conditions: kinase SIK2 (Entrez SIK2)
T16 construct: purchased Eurofin/DiscoverX
Text: as §1, §2, §3, §4, §5

[18] = target: T17, 384 kinases from the human genome (Homo sapiens, UniProt Q8TD19); conditions: kinase NEK9 (Entrez NEK9)
T17 construct: purchased Eurofin/DiscoverX
Text: as §1, §2, §3, §4, §5

[19] = target: T18, 384 kinases from the human genome (Homo sapiens, UniProt P35968); conditions: kinase VEGFR2 (Entrez KDR)
T18 construct: purchased Eurofin/DiscoverX
Text: as §1, §2, §3, §4, §5

[20] = target: T19, 384 kinases from the human genome (Homo sapiens, UniProt Q9UM73); conditions: kinase ALK (Entrez ALK)
T19 construct: purchased Eurofin/DiscoverX
Text: as §1, §2, §3, §4, §5

[21] = target: T20, 384 kinases from the human genome (Homo sapiens, UniProt Q92772); conditions: kinase CDKL2 (Entrez CDKL2)
T20 construct: purchased Eurofin/DiscoverX
Text: as §1, §2, §3, §4, §5

[22] = target: T21, 384 kinases from the human genome (Homo sapiens, UniProt O00750); conditions: kinase PIK3C2B (Entrez PIK3C2B)
T21 construct: purchased Eurofin/DiscoverX
Text: as §1, §2, §3, §4, §5

[23] = target: T22, 384 kinases from the human genome (Homo sapiens, UniProt P15735); conditions: kinase PHKG2 (Entrez PHKG2)
T22 construct: purchased Eurofin/DiscoverX
Text: as §1, §2, §3, §4, §5

[24] = target: T23, 384 kinases from the human genome (Homo sapiens, UniProt Q13627); conditions: kinase DYRK1A (Entrez DYRK1A)
T23 construct: purchased Eurofin/DiscoverX
Text: as §1, §2, §3, §4, §5

[25] = target: T24, 384 kinases from the human genome (Homo sapiens, UniProt P49761); conditions: kinase CLK3 (Entrez CLK3)
T24 construct: purchased Eurofin/DiscoverX
Text: as §1, §2, §3, §4, §5

[26] = target: T25, 384 kinases from the human genome (Homo sapiens, UniProt Q96J92); conditions: kinase WNK4 (Entrez WNK4)
T25 construct: purchased Eurofin/DiscoverX
Text: as §1, §2, §3, §4, §5

T15 sequence (P30291 whole entry): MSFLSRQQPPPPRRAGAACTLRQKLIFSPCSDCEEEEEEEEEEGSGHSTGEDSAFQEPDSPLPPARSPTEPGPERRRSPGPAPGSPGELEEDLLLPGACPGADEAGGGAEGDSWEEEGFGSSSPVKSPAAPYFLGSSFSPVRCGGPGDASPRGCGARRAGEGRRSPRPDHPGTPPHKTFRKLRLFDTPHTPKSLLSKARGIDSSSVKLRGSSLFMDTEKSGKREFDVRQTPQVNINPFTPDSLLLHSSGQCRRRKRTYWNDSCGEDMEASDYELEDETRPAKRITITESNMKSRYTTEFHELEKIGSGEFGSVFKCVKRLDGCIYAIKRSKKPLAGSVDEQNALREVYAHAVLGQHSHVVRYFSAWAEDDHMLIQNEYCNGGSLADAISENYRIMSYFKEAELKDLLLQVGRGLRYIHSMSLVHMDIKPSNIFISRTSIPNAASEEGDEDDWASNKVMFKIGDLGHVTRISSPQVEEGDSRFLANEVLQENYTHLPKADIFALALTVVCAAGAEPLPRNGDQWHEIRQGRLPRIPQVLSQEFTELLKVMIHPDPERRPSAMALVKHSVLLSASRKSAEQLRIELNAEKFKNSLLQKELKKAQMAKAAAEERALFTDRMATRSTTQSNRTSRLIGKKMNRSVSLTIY
T5 sequence (Q9Y2U5 whole entry): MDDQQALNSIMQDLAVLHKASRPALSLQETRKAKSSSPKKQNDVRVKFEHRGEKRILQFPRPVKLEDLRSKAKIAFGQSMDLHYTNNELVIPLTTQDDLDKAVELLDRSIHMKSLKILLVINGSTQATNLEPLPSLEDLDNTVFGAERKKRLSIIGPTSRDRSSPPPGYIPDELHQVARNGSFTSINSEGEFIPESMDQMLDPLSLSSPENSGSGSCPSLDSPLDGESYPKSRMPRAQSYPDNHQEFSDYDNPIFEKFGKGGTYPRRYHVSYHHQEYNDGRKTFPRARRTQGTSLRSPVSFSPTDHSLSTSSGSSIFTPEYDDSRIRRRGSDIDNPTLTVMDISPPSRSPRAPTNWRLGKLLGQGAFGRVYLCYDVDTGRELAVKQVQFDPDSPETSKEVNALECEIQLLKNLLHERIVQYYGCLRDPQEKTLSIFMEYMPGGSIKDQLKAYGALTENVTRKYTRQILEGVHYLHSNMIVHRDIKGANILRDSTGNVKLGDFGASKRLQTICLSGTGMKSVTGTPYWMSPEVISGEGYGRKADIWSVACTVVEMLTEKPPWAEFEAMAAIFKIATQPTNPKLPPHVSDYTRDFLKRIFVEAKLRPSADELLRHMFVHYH
T9 sequence (Q8IU85 whole entry): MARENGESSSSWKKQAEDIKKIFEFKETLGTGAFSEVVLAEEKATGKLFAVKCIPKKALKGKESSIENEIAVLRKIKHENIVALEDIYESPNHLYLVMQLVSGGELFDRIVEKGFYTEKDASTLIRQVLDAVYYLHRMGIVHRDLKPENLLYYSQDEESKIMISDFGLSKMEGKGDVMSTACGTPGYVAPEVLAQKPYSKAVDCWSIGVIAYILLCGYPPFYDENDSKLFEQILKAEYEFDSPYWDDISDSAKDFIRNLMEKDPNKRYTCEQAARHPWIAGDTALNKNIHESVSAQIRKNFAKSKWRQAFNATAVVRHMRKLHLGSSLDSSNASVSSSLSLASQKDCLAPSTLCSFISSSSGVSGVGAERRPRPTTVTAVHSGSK
T8 sequence (P28482 whole entry): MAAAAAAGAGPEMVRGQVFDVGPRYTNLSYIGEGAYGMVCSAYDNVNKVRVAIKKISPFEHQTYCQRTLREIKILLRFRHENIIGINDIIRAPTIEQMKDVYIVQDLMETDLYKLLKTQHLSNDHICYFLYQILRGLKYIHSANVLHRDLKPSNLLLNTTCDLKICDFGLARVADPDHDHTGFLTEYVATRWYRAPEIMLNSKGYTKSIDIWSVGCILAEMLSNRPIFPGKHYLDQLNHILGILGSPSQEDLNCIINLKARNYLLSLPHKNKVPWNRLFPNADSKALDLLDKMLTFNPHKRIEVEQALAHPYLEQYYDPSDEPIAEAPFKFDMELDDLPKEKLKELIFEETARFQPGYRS
T6 sequence (Q59H18 whole entry): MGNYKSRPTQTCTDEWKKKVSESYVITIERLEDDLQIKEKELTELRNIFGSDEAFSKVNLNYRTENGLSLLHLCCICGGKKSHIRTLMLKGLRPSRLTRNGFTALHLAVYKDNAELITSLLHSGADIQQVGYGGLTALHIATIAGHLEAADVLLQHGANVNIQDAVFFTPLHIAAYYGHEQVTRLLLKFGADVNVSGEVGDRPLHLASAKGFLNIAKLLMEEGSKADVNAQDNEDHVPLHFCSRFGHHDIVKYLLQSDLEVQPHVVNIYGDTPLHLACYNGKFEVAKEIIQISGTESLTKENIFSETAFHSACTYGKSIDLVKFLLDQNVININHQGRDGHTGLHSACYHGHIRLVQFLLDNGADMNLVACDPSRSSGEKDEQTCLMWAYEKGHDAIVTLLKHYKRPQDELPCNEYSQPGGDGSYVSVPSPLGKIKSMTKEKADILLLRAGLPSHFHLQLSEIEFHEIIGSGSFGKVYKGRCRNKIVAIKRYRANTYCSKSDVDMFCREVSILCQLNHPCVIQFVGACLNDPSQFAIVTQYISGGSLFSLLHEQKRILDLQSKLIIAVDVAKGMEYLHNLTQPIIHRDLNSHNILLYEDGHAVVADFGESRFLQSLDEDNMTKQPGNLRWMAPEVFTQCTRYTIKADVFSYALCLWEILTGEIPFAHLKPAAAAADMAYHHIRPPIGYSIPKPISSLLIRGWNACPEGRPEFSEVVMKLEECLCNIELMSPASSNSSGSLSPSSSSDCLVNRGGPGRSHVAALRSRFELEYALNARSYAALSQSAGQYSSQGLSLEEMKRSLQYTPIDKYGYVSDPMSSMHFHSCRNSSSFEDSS
T12 sequence (Q04912 25-1400): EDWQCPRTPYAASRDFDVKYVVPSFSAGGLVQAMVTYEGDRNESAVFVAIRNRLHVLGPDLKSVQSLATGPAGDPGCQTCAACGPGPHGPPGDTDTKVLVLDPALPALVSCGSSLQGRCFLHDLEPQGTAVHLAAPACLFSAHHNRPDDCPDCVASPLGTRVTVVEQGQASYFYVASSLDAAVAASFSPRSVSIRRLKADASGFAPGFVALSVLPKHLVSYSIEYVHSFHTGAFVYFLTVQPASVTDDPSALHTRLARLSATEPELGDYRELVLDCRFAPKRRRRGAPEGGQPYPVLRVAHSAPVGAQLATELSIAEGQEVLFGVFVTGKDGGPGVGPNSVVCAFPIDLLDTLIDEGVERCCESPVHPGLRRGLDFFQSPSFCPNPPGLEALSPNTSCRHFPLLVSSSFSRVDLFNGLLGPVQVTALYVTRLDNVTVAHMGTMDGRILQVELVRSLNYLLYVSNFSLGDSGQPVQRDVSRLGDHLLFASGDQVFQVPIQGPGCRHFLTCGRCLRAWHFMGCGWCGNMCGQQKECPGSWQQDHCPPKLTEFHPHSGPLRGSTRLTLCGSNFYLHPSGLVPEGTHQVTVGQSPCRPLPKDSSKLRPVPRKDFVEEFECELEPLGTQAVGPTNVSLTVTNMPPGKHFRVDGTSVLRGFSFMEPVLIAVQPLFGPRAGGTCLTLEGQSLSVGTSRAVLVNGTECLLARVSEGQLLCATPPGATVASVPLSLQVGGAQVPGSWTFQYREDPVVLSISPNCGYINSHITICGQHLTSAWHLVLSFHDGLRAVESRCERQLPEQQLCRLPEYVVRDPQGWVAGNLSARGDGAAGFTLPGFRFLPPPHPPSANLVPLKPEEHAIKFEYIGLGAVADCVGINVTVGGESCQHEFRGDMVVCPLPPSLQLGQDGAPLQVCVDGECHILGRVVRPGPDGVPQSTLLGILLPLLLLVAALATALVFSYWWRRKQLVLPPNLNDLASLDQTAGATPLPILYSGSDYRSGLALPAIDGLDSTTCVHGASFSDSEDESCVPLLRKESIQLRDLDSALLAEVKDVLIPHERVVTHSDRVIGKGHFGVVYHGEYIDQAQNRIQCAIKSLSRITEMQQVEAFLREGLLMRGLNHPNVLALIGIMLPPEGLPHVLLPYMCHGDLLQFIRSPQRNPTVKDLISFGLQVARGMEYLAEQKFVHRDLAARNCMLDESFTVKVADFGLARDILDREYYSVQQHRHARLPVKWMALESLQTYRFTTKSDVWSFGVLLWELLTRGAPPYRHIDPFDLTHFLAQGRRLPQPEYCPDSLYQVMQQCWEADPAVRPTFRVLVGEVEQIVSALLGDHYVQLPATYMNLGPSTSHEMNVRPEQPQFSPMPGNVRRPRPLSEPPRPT
T3 sequence (Q9HCP0 whole entry): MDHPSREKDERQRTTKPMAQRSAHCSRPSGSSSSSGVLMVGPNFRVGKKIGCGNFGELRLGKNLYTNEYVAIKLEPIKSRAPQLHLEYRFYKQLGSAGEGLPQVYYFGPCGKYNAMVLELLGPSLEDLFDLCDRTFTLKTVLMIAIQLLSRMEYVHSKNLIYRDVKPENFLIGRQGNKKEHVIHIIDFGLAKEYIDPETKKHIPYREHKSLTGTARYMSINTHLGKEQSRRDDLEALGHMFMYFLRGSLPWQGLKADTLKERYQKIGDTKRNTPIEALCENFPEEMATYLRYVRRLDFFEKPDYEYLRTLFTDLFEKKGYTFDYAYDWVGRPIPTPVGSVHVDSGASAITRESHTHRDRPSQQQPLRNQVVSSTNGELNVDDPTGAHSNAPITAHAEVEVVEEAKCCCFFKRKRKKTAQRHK
T22 sequence (P15735 whole entry): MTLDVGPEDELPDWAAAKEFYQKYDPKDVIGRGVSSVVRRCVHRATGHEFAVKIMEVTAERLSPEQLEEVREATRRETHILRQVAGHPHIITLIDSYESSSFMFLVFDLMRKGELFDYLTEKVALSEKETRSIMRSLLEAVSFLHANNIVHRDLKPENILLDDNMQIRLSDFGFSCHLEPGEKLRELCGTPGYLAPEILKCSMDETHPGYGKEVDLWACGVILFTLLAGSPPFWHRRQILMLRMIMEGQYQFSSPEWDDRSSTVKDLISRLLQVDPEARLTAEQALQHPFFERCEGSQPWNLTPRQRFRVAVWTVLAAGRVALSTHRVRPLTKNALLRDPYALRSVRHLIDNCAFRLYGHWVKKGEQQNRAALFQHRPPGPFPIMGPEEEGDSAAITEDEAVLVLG

CC(C)C(=O)N1CCN(c2ccc(NC(=O)c3cc4ccccc4o3)cc2Cl)CC1 [Compound 21]
Percent Control [1]: 90%
Percent Control [2]: 100%
binding to ERK subtypes [3]: failed to bind
binding to MEK subtypes [3]: failed to bind
binding to PI3K subtypes [3]: failed to bind
binding to different Akt subtypes [3]: failed to bind
Percent Control [4]: 87%
Percent Control [5]: 100%
Percent Control [6]: 99%
Percent Control [7]: 70%
Percent Control [8]: 90%
Percent Control [9]: 97%
Percent Control [10]: 94%
Percent Control [11]: 89%
Percent Control [12]: 100%
Percent Control [13]: 91%
Percent Control [14]: 100%
Percent Control [15]: 100%
Percent Control [16]: 98%
Percent Control [17]: 77%
Percent Control [18]: 100%
Percent Control [19]: 93%
Percent Control [20]: 89%
Percent Control [21]: 100%
Percent Control [22]: 98%
Percent Control [23]: 100%
Percent Control [24]: 98%
Percent Control [25]: 100%
Percent Control [26]: 100%
